According to patent US9096591B2, “Tetracyclic compounds” (Medivation Technologies, Inc., priority 2007, dated 2015):

Key:
[1] = system: rat brain mitochondria; assay: Calcium retention capacity of mitochondria; type: biochemical, Wistar rats; conditions: at concentrations near the IC50
Procedure: Analyses of extramitochondrial Ca^2+ following a bolus dose of Ca^2+ were performed under energized conditions, in a sucrose based buffer (250 mM sucrose, 10 mM HEPES, 1 mM Pi (K), 1 mM MgCl2, 10 μM EGTA, pH 7.2) containing 5 mkM Arsenazo III, 1 μg/ml oligomycin and 20 μM ADP with 5 mM malate and glutamate as respiratory substrates in a cuvette in a Beckman DU 640 spectrophotometer.

[2] = system: C57BL/6 mice; assay: Recognition of a new location of the known object (spatial memory); type: in vivo; conditions: 10 mg/kg
Description: The object recognition test is based on the fact that mice and rats spontaneously explore new object or location of a known object a lot longer than the know object or a known location of an object. This test was first used in rats (Ennaceur A., Delacour J., 1988). It was further shown by others that this type of memory testing is suitable for mice (Dodart J. et al. 1997, Messier C. 1997, Pittenger C. et al., 2002, Ryabinin A. et al., 2002, Sargolini F. et al., 2003). The method of recognition of an object is divided in two stages. The first one involves the recognition of a new location of a known object, which is used to assess spatial memory. The second one includes a test for recognition of a new in order to evaluate the non-spatial memory (Gaffan D., 1992, Kolb B. et al., 1994, Steckler T., 1998). Currently, both are widely used to determine the effectiveness of newly synthesized drugs on memory.
All experiments were carried out on 3-4 months old males (C57BL/6 line) 22-26 g weight with 10 animals in each group. All animals were kept in the animal facility (5 animals per cage) on the 12×12 hours light cycle (8 am-8 pm) with free access to food and water. […] Brown glass vials were used as test objects which are 2.7 cm in diameter (1.1 inch) and 5.5 cm high (2.2 inch). All vials were treated with 85% ethanol 2-3 minutes before each testing. Animals were placed in the center of the chamber.
Dimebon and compounds of the invention were dissolved in distilled water and administered orally at 0.05 mL per 10 g of animal mass 1 hour before the training exercise. All animals in the control group were treated with the equivalent dose of vehicle. The testing was performed 48 hours after the training exercise because animals forget the location of the object during the 48-hour resting time.
On the first day animals were brought in the testing room so that they could adapt to the testing environment for 20-30 min. Subsequently, each animal was placed in the empty testing chamber for 10 min, which was wiped with alcohol beforehand. After that animals were transferred back into the […] and returned to the animal facility.
The next day after habituation, the animals were brought back into the testing room where they were weighed and injected with the testing compound. An hour after injection, each animal was placed into the testing camber which had two identical objects that were positioned 14.5 cm (5.7 inches) from the corners on the diagonal. The training exercise lasted for 15 min for each animal. Subsequently, each animal was placed back into the cage and returned into the animal house.
The testing procedure was performed 48 hours after the training exercise. During the procedure two objects were used as in the training exercise. […] The amount of time that each animal spent on exploration each object was determined with 0.1 sec accuracy using two electronic stopwatches for total of 10 min. […] The survey of the object was counted as positive if the nose of an animal was pointed within 2 cm or if the animal was touching the objected directly with the nose.
Due to fair differences in the amount of time that each animal surveyed the object, the percentage of the survey time for each animal was determined using this formula: tNL/(tFL+tNL)×100 (where t is time, NL—new location(object), and FL—familiar location(object)). […] Subsequently, the statistical significance was analyzed using a Student's t-test criteria.

| Structure (SMILES) | calcium-retention capacity of mitochondria [1] | time to explore the known object in a new location, % of the total time [2] | time to explore the object in a known position, % of the total time [2] |
| --- | --- | --- | --- |
| CN1CCc2c(c3cc(Cl)ccc3n2CCc2nc(-c3ccccc3)cs2)C1 [Compound C1-8] | increased the calcium-retention capacity of mitochondria |  |  |
| Cc1ccc2c(c1)c1c(n2CCc2ccc(C)nc2)CCN(C)C1 [Dimebon, dimebon, reference compound] |  | 61.2±5% | 38.8±5% |
